# No end group written: not given here.
# Assays:
# Experiment in all cases: Antibiotic activity, MIC by standard methodology
# Format in all cases: cell-based
# [1] = tested on: C. albicans
# Description: (§1) Chemical synthesis of the sequence (SEQ ID NO. 4) corresponding to Peptides 1 and 2 (SEQ ID NOS: 1 and 2 respectively) containing native (unmodified) tryptophan was achieved by SPPS, using Fmoc chemistry.
# [2] = tested on: E. coli
# Description: as §1
# [3] = tested on: P. aeruginosa
# Description: as §1
# [4] = tested on: S. aureus
# Description: as §1
sequence,measurement,setting,value
GFFKKAWRKVKHAGRRVLDTAKGVGRHYVNNWLNRYR [SEQ ID NO. 4],minimum inhibitory concentration (MIC),[1],> 256 µg/mL
same,minimum inhibitory concentration (MIC),[2],8 µg/mL
same,minimum inhibitory concentration (MIC),[3],8 µg/mL
same,minimum inhibitory concentration (MIC),[4],8 µg/mL

# Reference: patent US5734015A, “Family of linear antimicrobial peptides from hagfish intestine” (Magainin Pharmaceuticals Inc., priority 1996, dated 1998)
